What was measured:
[1] = test system: MRGPRB4+ neurons (hM3DREADD); experiment: Conditioned place preference (CPP) assay, biased design, pharmacogenetic activation with CNO; type: in vivo, mouse
Method: (§1) For behavioral experiments, juvenile (1-month-old) mice neonatally injected with Cre-dependent AAV8 viruses expressing hM3DREADD were subjected to a conditioned place preference assay (CPP13) using a biased design, by an investigator blind to genotype. All mice were tested for their initial chamber preference before conditioning, as depicted in FIG. 4C, lower panel).
(§2) The conditioned place preference (CPP) protocol was based on previous studies. For testing a positive valence effect of activation of MrgprB4^+ neurons, a biased compartment assignment procedure in which activation of the neurons is tested for its ability was used to increase the time spent in the initially non-preferred chamber. The CPP apparatus consisted of a rectangular chamber divided into three compartments (300×150×150 mm per compartment), connected via an opening (50×50 mm) in each delimiting wall. The two side (test) compartments were designed to have different visual and tactile cues, by having distinct walls (horizontal or vertical alternating white and black stripes) and distinct floors (different shapes of floor grids with big or small square holes). In addition a 1-inch-diameter polyvinylchloride (PVC) pipe coupler (two schedule 40 wall thickness), either threaded or smooth, was placed in the centre of each side compartment to enrich for tactile cues. The centre compartment was a neutral plastic enclosure (see FIG. 4B). This design was chosen so as to promote a compartment preference assignment for each mouse. A video tracking system (Noldus Ethovision) recorded all animal movements.
(§3) Because our hypothesis is based on the social reward mediated by social contact in juvenile mice, the mice used were approximately 1-month old. After weaning the mice were maintained in social groups and left undisturbed until the start of the CPP assay. The paradigm was completed in 6 days. On the day before pre-testing the mice were socially isolated in their home cage. On day 1 of the procedure each mouse was placed in the central compartment and allowed to explore the entire apparatus freely for 30 min (pre-test). After the pre-test the initial preference of each mouse for a given side compartment was recorded. […] Conditioning was initiated on day 2 and encompassed four sessions performed on four consecutive days. In the first conditioning session mice were injected i.p. with CNO (5 mg kg) (or saline of an equivalent volume for some control mice) and placed for 1 h (based on the observation that CNO effects peak between 45 and 50 min after administration) in the initially non-preferred (I.N.P.) compartment. On day 3, during the second conditioning session, all mice were injected with saline and confined for 1 hr in the opposite (that is, initially preferred, I.P.) compartment. (The second conditioning session was performed the following day as CNO effects last for 9 hrs.) On day 4 and day 5 the first and second conditioning sessions were repeated, respectively. The time between the i.p. injections of CNO or saline and the placement of the mice in the compartment was between 5-10 min, which is compatible with the time that is needed for CNO to start having an effect. On day 6, the mice were tested for their side compartment preference by placing them in the centre compartment and allowing them to explore the entire apparatus freely for 30 min (post test). All sessions were conducted blind to the genotype/injected virus of each mouse. For the conditioned place aversion (CPA assay) the mice remained group-housed until the day before the pre-test. After the pre-test, on the first day of the conditioning session the mice were injected with saline and confined in the I.N.P. compartment. On the second day of conditioning the mice were injected with CNO (except for the saline control mice) and placed in the I.P. compartment. On the third and fourth day of conditioning the first and second sessions of conditioning were repeated, respectively. […]

[2] = test system: MRGPRD+ neurons (hM3DREADD); experiment: as above; type: in vivo, mouse; conditions: MrgprD-Cre/hM3DREADD mice conditioned with CNO, n=8
Method: as §1, §2, §3

Compound: C[N+]1([O-])CCN(C2=Nc3cc(Cl)ccc3Nc3ccccc32)CC1 [CNO, Clozapine-N-oxide]
- difference of means of difference scores, experimental versus pooled controls ([1]; 95% confidence interval 62.9-339.3, Cohen's d=0.872): 201±70
- difference score (time after conditioning minus before conditioning), saline-paired chamber ([1]; MrgprB4::hM3DREADD mice, n=15): -340 ± 74 s
- difference score (time after conditioning minus before conditioning), CNO-paired (I.N.P.) chamber ([1]; MrgprB4::hM3DREADD mice, n=15, p<0.01): 253 ± 66 s
- increase in the time spent in the I.N.P. chamber paired with CNO exposure ([1]; Mrgprb4-hM3DREADD mice, CNO 5 mg/kg i.p., pre- versus post-training, n=15, P<0.01): 190±95%
- change in the difference score for the I.N.P. chamber ([1]; control mice expressing hrGFP in MrgprB4+ (n=9) or MrgprD+ (n=10) neurons, conditioned with CNO): No significant change
- mean difference score of the experimental animals in the I.N.P. chamber ([1]; experimental group (FIG. 4e, j)): 253±65.8
- increase in preference score for the I.N.P. chamber (time in CNO/I.N.P. chamber divided by total time in the two test chambers) ([1]; experimental group, pre vs. post, p<0.001): 195±86%
- conditioned place preference (CPP) [2]: neither CPP

Source: US20140178305A1, “IDENTIFICATION AND USE OF ANXIOLYTIC COMPOUNDS” (CALIFORNIA INSTITUTE OF TECHNOLOGY, priority 2012, published 2014)
